Laboratory results reported in ChEMBL document CHEMBL5370642, “Synthesis and Bioevaluation of 3-(Arylmethylene)indole Derivatives: Discovery of a Novel ALK Modulator with Antiglioblastoma Activities” (J Med Chem, 2023).
Calls of active or inactive are those of the source. The calls are words filed in the database; no cut-off is given here.

Key:
[1] = system: U-87 MG; experiment: Anti-proliferative activity against human U-87 MG cells assessed as cell viability incubated for 2 hrs by CCK8 assay; format: functional, cell-based, U-87MG ATCC
[2] = system: GL261; experiment: Anti-proliferative activity against mouse GL261 cells assessed as cell viability incubated for 2 hrs by CCK8 assay; format: functional, cell-based; details: GL261, 2 h
[3] = Half life in C57BL6/J mouse at 5 mg/kg, iv measured upto 24 hrs by LC-MS/MS analysis; format: ADME, organism-based; details: in vivo
[4] = Tmax in C57BL6/J mouse at 5 mg/kg, iv measured upto 24 hrs by LC-MS/MS analysis; format: ADME, organism-based; details: in vivo
[5] = Cmax in C57BL6/J mouse at 5 mg/kg, iv measured upto 24 hrs by LC-MS/MS analysis; format: ADME, organism-based; set-up: dose 5 mg/kg, time < 24 hrs, route iv; details: in vivo
[6] = AUC (0 to 8hrs) in C57BL6/J mouse at 5 mg/kg, iv measured upto 24 hrs by LC-MS/MS analysis; format: ADME, organism-based; set-up: dose 5 mg/kg, time < 24 hrs, route iv; details: in vivo
[7] = AUC (0 to infinity) in C57BL6/J mouse at 5 mg/kg, iv measured upto 24 hrs by LC-MS/MS analysis; format: ADME, organism-based; set-up: dose 5 mg/kg, time < 24 hrs, route iv; details: in vivo
[8] = MRT (0 to infinity) in C57BL6/J mouse at 5 mg/kg, iv measured upto 24 hrs by LC-MS/MS analysis; format: ADME, organism-based; details: in vivo
[9] = Volume of distribution at steady state in C57BL6/J mouse at 5 mg/kg, iv measured upto 24 hrs by LC-MS/MS analysis; format: ADME, organism-based; details: in vivo, read-out: Vdss
[10] = Apparent volume of distribution in C57BL6/J mouse at 5 mg/kg, iv measured upto 24 hrs by LC-MS/MS analysis; format: ADME, organism-based; details: in vivo, read-out: Vz
[11] = Half life in C57BL6/J mouse at 5 mg/kg, ip measured upto 24 hrs by LC-MS/MS analysis; format: ADME, organism-based; details: in vivo
[12] = Tmax in C57BL6/J mouse at 5 mg/kg, ip measured upto 24 hrs by LC-MS/MS analysis; format: ADME, organism-based; details: in vivo
[13] = AUC (0 to 8hrs) in C57BL6/J mouse at 5 mg/kg, ip measured upto 24 hrs by LC-MS/MS analysis; format: ADME, organism-based; set-up: dose 5 mg/kg, time < 24 hrs, route ip; details: in vivo
[14] = AUC (0 to infinity) in C57BL6/J mouse at 5 mg/kg, ip measured upto 24 hrs by LC-MS/MS analysis; format: ADME, organism-based; set-up: time < 24 hrs, dose 5 mg/kg, route ip; details: in vivo
[15] = MRT (0 to 8hrs) in C57BL6/J mouse at 5 mg/kg, ip measured upto 24 hrs by LC-MS/MS analysis; format: ADME, organism-based; details: in vivo
[16] = MRT (0 to infinity) in C57BL6/J mouse at 5 mg/kg, ip measured upto 24 hrs by LC-MS/MS analysis; format: ADME, organism-based; details: in vivo
[17] = Drug uptake in C57BL6/J mouse brain at 20 mg/kg, ip measured after 2 hrs by LC-MS/MS analysis; format: ADME, organism-based; details: in vivo
[18] = system: Mus musculus; experiment: Anti glioblastoma activity against mouse GL261-mNeonGreenLuc cells stereotaxically injected in corpus striatum of orthotopic glioblastoma mouse model assessed as increase in survival rate at 5 mg/kg, ip once daily measured on day 21; format: functional, organism-based
[19] = system: GL261; experiment: Anti glioblastoma activity against mouse GL261-mNeonGreenLuc cells stereotaxically injected in corpus striatum of orthotopic glioblastoma mouse model assessed as inhibition of tumor growth at 5 mg/kg, ip once daily measured on day 21 by immunofluorescence imaging analysis; format: functional, organism-based
[20] = system: GL261; experiment: Anti glioblastoma activity against mouse GL261-mNeonGreenLuc cells stereotaxically injected in corpus striatum of orthotopic glioblastoma mouse model assessed as shrunken tumor tissue at 5 mg/kg, ip once daily measured on day 21 by H and E staining analysis; format: functional, organism-based
[21] = system: GL261; experiment: Anti-glioblastoma activity against mouse GL261-mNeonGreenLuc cells stereotaxically injected in corpus striatum of orthotopic glioblastoma mouse model assessed as decrease in Ki67 expression in GFP-labeled glioblastoma tissue at 5 mg/kg, ip once daily measured on day 21 by confocal microscopy; format: functional, organism-based
[22] = target: ALK tyrosine kinase receptor (Mus musculus) (UniProt P97793); experiment: Inhibition of ALK phosphorylation in mouse GL261 cells at 0.5 to 2 uM incubated for 24 hrs by Western blot analysis; format: cell-based; details: dose 0.5-2 µM
[23] = target: T1, ALK tyrosine kinase receptor (Homo sapiens, UniProt Q9UM73); experiment: Inhibition of human ALK using GF-IRtide as substrate by Kinase-Glo Plus luminescence kinase assay
Target sequence in this assay (Q9UM73 whole entry): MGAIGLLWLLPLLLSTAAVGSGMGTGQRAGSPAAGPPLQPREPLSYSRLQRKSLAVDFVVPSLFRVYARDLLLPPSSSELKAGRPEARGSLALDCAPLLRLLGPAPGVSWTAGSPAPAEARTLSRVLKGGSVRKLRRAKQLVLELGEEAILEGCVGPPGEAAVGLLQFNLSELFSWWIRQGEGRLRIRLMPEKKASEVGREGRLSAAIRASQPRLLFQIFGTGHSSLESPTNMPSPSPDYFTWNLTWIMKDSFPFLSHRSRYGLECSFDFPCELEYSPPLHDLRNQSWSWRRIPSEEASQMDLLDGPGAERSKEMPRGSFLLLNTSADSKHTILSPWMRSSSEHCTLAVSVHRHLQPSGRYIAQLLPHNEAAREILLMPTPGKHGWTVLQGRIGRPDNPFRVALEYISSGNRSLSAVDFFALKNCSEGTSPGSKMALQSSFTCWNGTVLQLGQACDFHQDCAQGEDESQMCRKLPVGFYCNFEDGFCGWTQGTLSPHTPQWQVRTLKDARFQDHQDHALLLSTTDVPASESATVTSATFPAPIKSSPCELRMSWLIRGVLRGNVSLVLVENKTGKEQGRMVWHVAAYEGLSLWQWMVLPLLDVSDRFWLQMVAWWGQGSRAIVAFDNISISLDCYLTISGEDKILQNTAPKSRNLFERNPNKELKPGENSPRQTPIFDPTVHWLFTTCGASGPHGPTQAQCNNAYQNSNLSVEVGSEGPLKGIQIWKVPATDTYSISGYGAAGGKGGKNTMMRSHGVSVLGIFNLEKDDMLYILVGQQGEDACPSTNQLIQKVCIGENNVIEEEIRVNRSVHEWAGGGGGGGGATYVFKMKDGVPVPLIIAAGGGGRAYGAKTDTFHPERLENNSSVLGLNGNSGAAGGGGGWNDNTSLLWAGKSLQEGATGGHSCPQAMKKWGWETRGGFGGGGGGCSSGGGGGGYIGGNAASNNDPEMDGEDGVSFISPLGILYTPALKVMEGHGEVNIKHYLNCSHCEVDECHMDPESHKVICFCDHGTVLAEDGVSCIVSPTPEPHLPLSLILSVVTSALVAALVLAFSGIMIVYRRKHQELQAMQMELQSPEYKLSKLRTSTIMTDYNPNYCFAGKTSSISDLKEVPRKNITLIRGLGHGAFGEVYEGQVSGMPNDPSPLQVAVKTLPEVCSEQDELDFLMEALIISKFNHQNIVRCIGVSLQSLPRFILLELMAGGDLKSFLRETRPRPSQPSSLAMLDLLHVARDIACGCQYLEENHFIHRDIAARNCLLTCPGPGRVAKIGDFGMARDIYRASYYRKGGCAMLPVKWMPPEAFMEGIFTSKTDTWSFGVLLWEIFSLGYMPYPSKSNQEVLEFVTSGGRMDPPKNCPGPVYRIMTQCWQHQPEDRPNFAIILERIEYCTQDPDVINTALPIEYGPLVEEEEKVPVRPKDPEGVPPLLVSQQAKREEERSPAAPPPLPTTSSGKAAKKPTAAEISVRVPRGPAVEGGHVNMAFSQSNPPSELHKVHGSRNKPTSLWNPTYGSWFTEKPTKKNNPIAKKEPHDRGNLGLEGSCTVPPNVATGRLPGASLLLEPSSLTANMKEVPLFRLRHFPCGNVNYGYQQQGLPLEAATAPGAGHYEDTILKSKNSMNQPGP

[24] = system: U-87 MG; experiment: Anti-proliferative activity against human U-87 MG cells assessed as decrease in cell viability incubated for 24 to 72 hrs by CCK8 assay; format: functional, cell-based; details: U-87MG ATCC, dose 0.5-10 µM, time 24-72 hrs
[25] = system: GL261; experiment: Induction of autophagy in mouse GL261 cells assessed as increase in LC3BII levels at 0.5 to 2 uM incubated for 24 hrs by Western blot analysis; format: functional, cell-based; details: dose 0.5-2 µM
[26] = system: GL261; experiment: Induction of autophagy in mouse GL261 cells transfected with mRFP-GFPLC3 adenovirus assessed as yellow fluorescence pretreated with CQ for 30 mins followed by treated at 2 uM measured after 48 hrs by confocal microscopy; format: functional, cell-based
[27] = system: GL261; experiment: In vivo induction of autophagy in mouse GL261 cells transfected with mRFP-GFPLC3 adenovirus allografted in C57BL/6J mouse model assessed as LC3 puncta in tumor tissue at 2.5 to 5 mg/kg, ip by immunofluorescence assay; format: functional, organism-based; details: dose 2.5-5 mg/kg
[28] = system: GL261; experiment: Induction of apoptosis in mouse GL261 cells assessed as increase in annexin-V+/PI- cells at 0.5 to 2 uM by flow cytometry; format: functional, cell-based; details: dose 0.5-2 µM, time 24-72 hrs, TDE = time-dependent effect
[29] = system: GL261; experiment: Induction of mitochondrial membrane potential loss in mouse GL261 cells at 0.5 to 2 uM incubated for 24 hrs by JC-1 staining based flow cytometry assay; format: functional, cell-based; details: dose 0.5-2 µM
[30] = system: GL261; experiment: Induction of apoptosis in mouse GL261 cells assessed as increase in cleaved caspase 3 level measured at 0.5 to 2 uM after 24 hrs by Western blot analysis; format: functional, cell-based; details: dose 0.5-2 µM
[31] = system: GL261; experiment: In vivo induction of apoptosis in mouse GL261 cells transfected with mRFP-GFPLC3 adenovirus allografted in C57BL/6J mouse model assessed as increase in cleaved PARP level in tumor tissue at 2.5 to 5 mg/kg, ip by immunofluorescence assay; format: functional, organism-based; details: dose 2.5-5 mg/kg
[32] = system: GL261; experiment: In vivo induction of apoptosis in mouse GL261 cells transfected with mRFP-GFPLC3 adenovirus allografted in C57BL/6J mouse model assessed as increase in cleaved caspase 3 level in tumor tissue at 2.5 to 5 mg/kg, ip by immunofluorescence assay; format: functional, organism-based; details: dose 2.5-5 mg/kg
[33] = system: GL261; experiment: Induction of cell cycle arrest in mouse GL261 cells assessed as accumulation of cells at S phase at 0.5 to 2 uM incubated for 24 to 72 hrs by flow cytometry; format: functional; details: dose 0.5-2 µM, time 24-72 hrs
[34] = target: T1, ALK tyrosine kinase receptor; details: U-87 MG, dose 0.5-2 µM, time 24.0 hrs
Target sequence in this assay (Q9UM73 19-1620 limits assumed): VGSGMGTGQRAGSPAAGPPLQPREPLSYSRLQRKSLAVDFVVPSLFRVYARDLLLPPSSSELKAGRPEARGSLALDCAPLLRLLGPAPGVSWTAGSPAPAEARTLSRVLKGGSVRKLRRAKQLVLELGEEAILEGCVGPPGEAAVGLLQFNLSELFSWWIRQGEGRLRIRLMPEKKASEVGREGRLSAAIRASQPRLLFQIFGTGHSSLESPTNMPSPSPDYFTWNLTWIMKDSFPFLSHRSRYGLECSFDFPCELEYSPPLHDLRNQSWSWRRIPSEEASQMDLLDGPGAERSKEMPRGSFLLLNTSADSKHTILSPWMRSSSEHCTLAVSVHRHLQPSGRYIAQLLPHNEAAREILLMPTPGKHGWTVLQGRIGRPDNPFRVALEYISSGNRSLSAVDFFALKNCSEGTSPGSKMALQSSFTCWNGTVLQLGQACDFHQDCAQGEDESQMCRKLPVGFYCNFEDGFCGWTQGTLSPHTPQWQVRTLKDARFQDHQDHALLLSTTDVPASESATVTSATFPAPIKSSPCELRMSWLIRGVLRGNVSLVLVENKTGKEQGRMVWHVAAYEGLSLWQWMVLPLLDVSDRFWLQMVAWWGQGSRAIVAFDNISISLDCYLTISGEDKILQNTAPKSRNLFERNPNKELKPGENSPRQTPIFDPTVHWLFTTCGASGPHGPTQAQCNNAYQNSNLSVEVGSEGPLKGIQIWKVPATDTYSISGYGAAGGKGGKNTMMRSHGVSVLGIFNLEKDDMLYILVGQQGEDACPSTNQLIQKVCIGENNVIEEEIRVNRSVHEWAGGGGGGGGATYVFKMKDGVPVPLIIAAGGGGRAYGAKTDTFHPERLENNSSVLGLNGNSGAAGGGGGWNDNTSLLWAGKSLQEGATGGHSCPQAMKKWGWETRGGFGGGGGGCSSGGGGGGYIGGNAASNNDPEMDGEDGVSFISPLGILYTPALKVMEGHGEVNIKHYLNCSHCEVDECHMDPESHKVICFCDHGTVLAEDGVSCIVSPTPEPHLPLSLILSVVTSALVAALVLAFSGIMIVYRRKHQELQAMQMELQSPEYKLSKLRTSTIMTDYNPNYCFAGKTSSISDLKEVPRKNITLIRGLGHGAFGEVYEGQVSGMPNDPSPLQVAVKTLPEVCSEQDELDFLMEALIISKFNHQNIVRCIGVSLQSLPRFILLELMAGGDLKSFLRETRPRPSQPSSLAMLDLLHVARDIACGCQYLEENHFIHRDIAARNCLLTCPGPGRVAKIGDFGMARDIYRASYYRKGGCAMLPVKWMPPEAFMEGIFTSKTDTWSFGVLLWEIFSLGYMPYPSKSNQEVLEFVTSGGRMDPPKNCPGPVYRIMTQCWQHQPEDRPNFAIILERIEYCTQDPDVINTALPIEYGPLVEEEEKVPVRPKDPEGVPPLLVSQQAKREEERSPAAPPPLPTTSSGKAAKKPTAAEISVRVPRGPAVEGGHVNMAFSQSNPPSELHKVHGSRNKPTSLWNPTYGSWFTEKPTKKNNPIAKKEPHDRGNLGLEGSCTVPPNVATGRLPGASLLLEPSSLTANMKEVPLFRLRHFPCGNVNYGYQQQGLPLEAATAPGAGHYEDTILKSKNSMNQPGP

[35] = target: T1, ALK tyrosine kinase receptor; details: U-87 MG, dose 0.5-2 µM, time 24.0 hrs; remark: listed apart in the source
Target sequence in this assay (Q9UM73 19-1620 limits assumed): as above

ALK tyrosine kinase receptor (Mus musculus), sequence (P97793 whole entry): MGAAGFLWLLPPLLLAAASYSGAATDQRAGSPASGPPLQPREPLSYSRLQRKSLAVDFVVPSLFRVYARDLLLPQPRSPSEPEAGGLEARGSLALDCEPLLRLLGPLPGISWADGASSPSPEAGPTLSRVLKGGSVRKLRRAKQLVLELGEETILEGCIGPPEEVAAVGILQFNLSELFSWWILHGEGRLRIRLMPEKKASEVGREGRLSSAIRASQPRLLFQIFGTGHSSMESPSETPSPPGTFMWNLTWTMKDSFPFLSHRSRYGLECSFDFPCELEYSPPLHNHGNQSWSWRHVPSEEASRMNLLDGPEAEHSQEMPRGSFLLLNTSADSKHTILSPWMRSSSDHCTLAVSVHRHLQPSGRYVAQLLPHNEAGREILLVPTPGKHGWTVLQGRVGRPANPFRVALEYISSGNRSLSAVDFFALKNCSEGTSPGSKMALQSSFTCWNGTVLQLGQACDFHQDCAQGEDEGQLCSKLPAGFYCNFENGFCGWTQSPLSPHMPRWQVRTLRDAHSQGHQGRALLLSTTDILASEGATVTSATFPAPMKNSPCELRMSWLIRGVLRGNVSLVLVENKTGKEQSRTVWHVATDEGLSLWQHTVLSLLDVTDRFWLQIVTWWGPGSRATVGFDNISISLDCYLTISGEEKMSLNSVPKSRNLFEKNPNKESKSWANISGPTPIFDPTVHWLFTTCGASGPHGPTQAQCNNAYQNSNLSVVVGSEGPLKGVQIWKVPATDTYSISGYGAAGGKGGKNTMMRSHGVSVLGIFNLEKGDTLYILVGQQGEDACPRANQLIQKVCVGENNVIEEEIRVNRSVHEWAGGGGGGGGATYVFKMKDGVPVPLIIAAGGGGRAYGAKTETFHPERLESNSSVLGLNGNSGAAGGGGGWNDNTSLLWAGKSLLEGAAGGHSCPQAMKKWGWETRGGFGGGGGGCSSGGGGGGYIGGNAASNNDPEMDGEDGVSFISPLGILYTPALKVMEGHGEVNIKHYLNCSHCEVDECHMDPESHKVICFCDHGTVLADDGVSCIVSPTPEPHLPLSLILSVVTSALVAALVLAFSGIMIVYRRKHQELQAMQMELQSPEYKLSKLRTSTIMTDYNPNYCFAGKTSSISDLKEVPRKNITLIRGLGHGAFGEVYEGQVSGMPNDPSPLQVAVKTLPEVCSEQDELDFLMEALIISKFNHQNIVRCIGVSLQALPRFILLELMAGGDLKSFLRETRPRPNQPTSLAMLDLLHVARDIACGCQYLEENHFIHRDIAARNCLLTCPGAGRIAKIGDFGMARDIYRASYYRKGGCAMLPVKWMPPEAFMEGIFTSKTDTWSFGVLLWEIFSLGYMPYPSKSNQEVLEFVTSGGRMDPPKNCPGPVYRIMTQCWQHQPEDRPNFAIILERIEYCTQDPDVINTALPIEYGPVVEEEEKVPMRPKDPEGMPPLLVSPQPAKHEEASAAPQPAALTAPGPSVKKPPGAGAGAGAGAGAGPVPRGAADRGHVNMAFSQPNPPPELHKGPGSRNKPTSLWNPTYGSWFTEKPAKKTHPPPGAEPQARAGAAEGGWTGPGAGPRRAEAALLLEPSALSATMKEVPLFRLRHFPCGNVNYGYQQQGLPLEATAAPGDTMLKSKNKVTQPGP

IC50 [1]: 7.25 µM
half-life [3]: 1.13 h
Tmax [4]: 4.8 min
Cmax [5]: 1980 ng/mL
AUC(0-t) at 24 h [6]: 885 ng·h/mL
AUC(0-inf) [7]: 925 ng·h/mL
MRT inf [8]: 0.84 h
Vd [9]: 4.59 L/kg
Vd [10]: 8.89 L/kg
half-life [11]: 3.55 h
Tmax [12]: 0.58 h
AUC(0-t) at 24 h [13]: 340 ng·h/mL
AUC(0-inf) [14]: 420 ng·h/mL
MRT last at 24 h [15]: 2.25 h
MRT inf [16]: 4.6 h
Drug uptake [17]: 2.7 µmol/kg
inhibition [22]: Active
IC50 [23]: 7 µM
inhibition [34]: Active
inhibition [35]: Active
Structure (SMILES): Cc1ccc(S(=O)(=O)n2cc(Cc3cc(C)c(O)c(C)c3)c3ccccc32)cc1
IC50 [2]: 1.35 µM
Activity [18]: Active
inhibition [19]: Active
Activity [20]: Active
Activity [21]: Active
Activity [24]: Dose-Dependent Effect
Activity [25]: Active
Activity [26]: inactive
Activity [27]: Active
Activity [28]: Tde
Activity [29]: Active
Activity [30]: Active
Activity [31]: Active
Activity [32]: Active
Activity [33]: 24.5%
